In patent US4957923A, “Diuretic or antihypertensive composition” (Fujisawa Pharmaceutical Co., Ltd., priority 1988, dated 1990):

Key:
Female SD rats = experiment: Diuretic action (rats); assay type: in vivo, rat (SD); settings: mean ± S.E.
Experimental: Female SD rats aged 6 weeks (9 rats per dosage) were used. After an 18-hour fast, the rats were dosed with the test drug and, at the same time, orally loaded with 20 ml/kg of physiological saline. The rats were then placed in metabolism cages, 3 animals per cage, and the 0-6 hour and 6-24 hour urines were collected. Meanwhile, the animals were additionally loaded with 25 ml/kg of physiological saline immediately after collection of the 0-6 hour urine. Na^+ in urine was determined with STAT/ION II (Technicon).
The results were respectively converted to the amounts of excretion per kg rat body weight, which were then tabulated as the mean±S.E. for each dose level.
The drug was suspended in 0.5% methylcellulose at necessary concentrations and 5 ml/kg of each suspension was orally administered. The control group similarly received 0.5% methylcellulose only.

Female beagle dogs = experiment: Diuretic action (beagle dogs); assay type: in vivo, dog (beagle); settings: 100 mg/kg p.o., interval not given, mean ± S.E.
Experimental: Female beagle dogs weighing 8 to 10 kg were used (6 dogs per group). After an 18-hour fast, the animals were orally dosed with 5 ml/kg of suspensions of the drug in 0.5% methylcellulose and, at the same time, orally loaded with 15 ml/kg of physiological saline and the 0-6 hr and 6-24 hr urines were collected. Meanwhile, the dogs were additionally loaded with 20 ml/kg of physiological saline immediately after collection of the 0-6 hr urine. Na^+ in urine was determined with STAT/ION (Technicone).
The results were respectively converted to the amounts of excretion per kg body weight, which were then tabulated as the mean±S.E. for each dose level. The control group similarly received 0.5% methylcellulose instead of the drug.

DOCA hypertensive rats = experiment: Antihypertension action (DOCA hypertensive rats); assay type: in vivo, rat (Wistar)
Experimental: Male Wistar rats, 10 weeks old, were subjected to left nephrectomy and 2 to 4 days after operation, deoxycorticosterone acetate was administered subcutaneously in a dose of 30 mg/ml/kg twice a week. The animals were given 1% saline for drinking water and the individuals showing a mean blood pressure of ≥150 mmHg at 15 weeks of age were submitted to the experiment. After catheterization, saline for drinking water was replaced with tap water. At the beginning of the experiment, the test rats had mean blood pressures from 152 to 204 mmHg, heart rates from 354 to 462 beats/min. and body weights from 232 to 318 g. 3~5 Animals per group were used.
3 Or 4 days before the beginning of the experiment, one end of a catheter for blood pressure measurement was passed from the femoral artery to the abdominal aorta of each rat and the other end was passed beneath the skin and fixed in exposed position in the dorsocervical region. The drug was orally administered once a day for 5 consecutive days. The rats had been deprived of food for about 3 hours before drug administration. The blood pressure was measured before administration and 5 hours after administration of days 1, 3 and 5. At each blood pressure measurement, the mean blood pressure was observed via a pressure transducer connected to the dorsocervical end of the catheter for blood pressure measurement and the stabilized mean blood pressure was recorded.
Drug was suspended and diluted using a 0.5% solution of methylcellulose and 5ml/kg of the suspension was orally administered.

[1] = 3.2 mg/kg p.o. once a day, Day 1 after 5 hr
[2] = 3.2 mg/kg p.o. once a day, Day 1 before administration (baseline)
[3] = 3.2 mg/kg p.o. once a day, Day 3 after 5 hr
[4] = 3.2 mg/kg p.o. once a day, Day 3 before administration
[5] = 3.2 mg/kg p.o. once a day, Day 5 after 5 hr
[6] = 3.2 mg/kg p.o. once a day, Day 5 before administration
[7] = 10 mg/kg p.o. once a day, Day 1 after 5 hr
[8] = 10 mg/kg p.o. once a day, Day 1 before administration (baseline)
[9] = 10 mg/kg p.o. once a day, Day 3 after 5 hr
[10] = 10 mg/kg p.o. once a day, Day 3 before administration
[11] = 10 mg/kg p.o. once a day, Day 5 after 5 hr
[12] = 10 mg/kg p.o. once a day, Day 5 before administration
[13] = 100 mg/kg p.o. once a day, Day 1 after 5 hr
[14] = 100 mg/kg p.o. once a day, Day 1 before administration (baseline)
[15] = 100 mg/kg p.o. once a day, Day 3 after 5 hr
[16] = 100 mg/kg p.o. once a day, Day 3 before administration
[17] = 100 mg/kg p.o. once a day, Day 5 after 5 hr
[18] = 100 mg/kg p.o. once a day, Day 5 before administration

With O=C(O)Cn1c(=O)n(Cc2ccc(Br)cc2F)c(=O)c2ccc(F)cc21 [Compound B, 2-[7-Fluoro-3-(4-bromo-2-fluorobenzyl)-1,2,3,4-tetrahydro-2,4-dioxoquinazolin-1-yl]acetic acid] the Urine volume (Female SD rats; 100 mg/kg p.o., 0-6 hr, control 13.2 ± 2.0) was 30.1 ± 1.5 mL/kg, the “Na^+ (urine)” value (Female SD rats; 100 mg/kg p.o., 0-6 hr, control 1460 ± 173) was 2416 ± 101 μEq/kg and the Urine volume (Female SD rats; 100 mg/kg p.o., 6-24 hr, control 26.59 ± 2.24) was 33.69 ± 0.55 mL/kg. The “Na^+ (urine)” value (Female SD rats; 100 mg/kg p.o., 6-24 hr, control 3830 ± 463) was 3940 ± 295 μEq/kg, the Urine volume (Female SD rats; 100 mg/kg p.o., total 0-24 hr, control 39.78 ± 4.26) was 63.75 ± 1.19 mL/kg and the “Na^+ (urine)” value (Female SD rats; 100 mg/kg p.o., total 0-24 hr, control 5289 ± 636) was 6356 ± 311 μEq/kg. For the same molecule, the Urine volume (Female SD rats; 320 mg/kg p.o., 0-6 hr, control 13.2 ± 2.0) was 37.9 ± 1.5 mL/kg, the “Na^+ (urine)” value (Female SD rats; 320 mg/kg p.o., 0-6 hr, control 1460 ± 173) was 3021 ± 440 μEq/kg and the Urine volume (Female SD rats; 320 mg/kg p.o., 6-24 hr, control 26.59 ± 2.24) was 61.22 ± 6.20 mL/kg. For the same molecule, the “Na^+ (urine)” value (Female SD rats; 320 mg/kg p.o., 6-24 hr, control 3830 ± 463) was 5861 ± 194 μEq/kg, the Urine volume (Female SD rats; 320 mg/kg p.o., total 0-24 hr, control 39.78 ± 4.26) was 99.10 ± 6.64 mL/kg and the “Na^+ (urine)” value (Female SD rats; 320 mg/kg p.o., total 0-24 hr, control 5289 ± 636) was 8882 ± 630 μEq/kg. For the same molecule, the Urine volume (Female beagle dogs; control 5.8 ± 1.4) was 13.3 ± 2.6 mL/kg, the “Na^+ (urine)” value (Female beagle dogs; control 544 ± 133) was 1068 ± 280 μEq/kg and the Mean blood pressure (DOCA hypertensive rats; [1]) was 176 mm Hg. For the same molecule, the “Percentage of change (mean blood pressure)” value (“Percentage of change” below) (DOCA hypertensive rats; [1]) was -8.9%, the Mean blood pressure (DOCA hypertensive rats; [2]) was 193 mm Hg and the “Percentage of change” value (DOCA hypertensive rats; [2]) was 0.0%. The Mean blood pressure (DOCA hypertensive rats; [3]) was 160 mm Hg, the “Percentage of change” value (DOCA hypertensive rats; [3]) was -17.1% and the Mean blood pressure (DOCA hypertensive rats; [4]) was 175 mm Hg. The “Percentage of change” value (DOCA hypertensive rats; [4]) was -9.3%, the Mean blood pressure (DOCA hypertensive rats; [5]) was 161 mm Hg and the “Percentage of change” value (DOCA hypertensive rats; [5]) was -16.7%. For the same molecule, the Mean blood pressure (DOCA hypertensive rats; [6]) was 167 mm Hg, the “Percentage of change” value (DOCA hypertensive rats; [6]) was -13.5% and the Mean blood pressure (DOCA hypertensive rats; [7]) was 148 mm Hg. The “Percentage of change” value (DOCA hypertensive rats; [7]) was -17.5%, the Mean blood pressure (DOCA hypertensive rats; [8]) was 180 mm Hg and the “Percentage of change” value (DOCA hypertensive rats; [8]) was 0.0%. The Mean blood pressure (DOCA hypertensive rats; [9]) was 132 mm Hg, the “Percentage of change” value (DOCA hypertensive rats; [9]) was -26.1% and the Mean blood pressure (DOCA hypertensive rats; [10]) was 137 mm Hg. The “Percentage of change” value (DOCA hypertensive rats; [10]) was -23.3%, the Mean blood pressure (DOCA hypertensive rats; [11]) was 143 mm Hg and the “Percentage of change” value (DOCA hypertensive rats; [11]) was -20.0%. The Mean blood pressure (DOCA hypertensive rats; [12]) was 139 mm Hg, the “Percentage of change” value (DOCA hypertensive rats; [12]) was -22.5% and the Mean blood pressure (DOCA hypertensive rats; [13]) was 151 mm Hg. For the same molecule, the “Percentage of change” value (DOCA hypertensive rats; [13]) was -14.5%, the Mean blood pressure (DOCA hypertensive rats; [14]) was 176 mm Hg and the “Percentage of change” value (DOCA hypertensive rats; [14]) was 0.0%. For the same molecule, the Mean blood pressure (DOCA hypertensive rats; [15]) was 130 mm Hg, the “Percentage of change” value (DOCA hypertensive rats; [15]) was -26.2% and the Mean blood pressure (DOCA hypertensive rats; [16]) was 144 mm Hg. The “Percentage of change” value (DOCA hypertensive rats; [16]) was -18.4%, the Mean blood pressure (DOCA hypertensive rats; [17]) was 135 mm Hg and the “Percentage of change” value (DOCA hypertensive rats; [17]) was -23.6%. The Mean blood pressure (DOCA hypertensive rats; [18]) was 138 mm Hg and the “Percentage of change” value (DOCA hypertensive rats; [18]) was -22.3%.
